Results as given in patent US20030180249A1, “Dosage forms for hygroscopic active ingredients” (priority 2002, published 2003).

Experiments:
Assay type in all cases: physicochemical
[1] = Storage stability of valproate resinates (severe conditions): moisture uptake and appearance; conditions: 40° C., 75% Relative Humidity
Method: One gram of each dry resin and resinate were weighed out accurately on an analytical balance in an aluminum dish along with a sample of sodium valproate. They were dried for two hours @60° C. in vaccuo and then placed in an incubator was at 40° C. and 75% Relative Humidity. After 17 hours the samples were removed from the incubator and weighed and observations on appearance were noted. % weight increases were calculated.

[2] = Storage stability of valproate resinates (ambient conditions): appearance over time; conditions: ambient 25° C., 56% relative humidity
Method: The samples from Example 3 were re-dried @60° C. in vaccuo overnight and then exposed to ambient conditions. During the test the ambient temperature was 25° C. and relative humidity was 56%.

[3] = Release of valproate from resinate, flow-thru filtration cell, USP 24 valproic acid dissolution medium; conditions: 37° C., equivalent of 60 mg sodium valproate
Method: The release of valproate from Resinate A was evaluated and compared to that of sodium valproate. The evaluation was performed using a 50 ml Millipore flow-thru filtration cell operated at 37° C. The dissolution medium was prepared as described in the US Pharmacopeia 24 monograph for Valproic Acid (page 1733).
An amount for resinate containing the equivalent of 60 mg of sodium valproate was used for one test and 60 mg of sodium valproate for the other. Fractions were collected at 20, 40, and 60 minutes. Sample preparation and analysis were done according to the US Pharmacopeia 24 monograph for Valproic Acid (page 1733).

- Moisture uptake (%) ([1]; 17 hours, after drying 2 h at 60° C. in vacuo): 40.4%
- Observation (appearance) ([1]; after 17 hours): Liquid
- Observation (appearance) ([2]; time 7:30): Sodium valproate sample is sticky;
- Observation (appearance) ([2]; time 7:45): Sodium valproate sample is sticky;
- % Valproate dissolved or released, 20 mins ([3]; 20 mins): 81.9%
- % Valproate dissolved or released, 40 mins ([3]; 40 mins): 97.8%
- % Valproate dissolved or released, 60 mins ([3]; 60 mins): 100%
- Total release [3]: 60.1 mg
SMILES: CCCC(CCC)C(=O)[O-].[Na+] [Na Valproate, sodium valproate]
